This note sets out measurements from ChEMBL document CHEMBL1201862, “PubChem BioAssay data set” (2004).

Some test systems named below: SN12C; A549; HOP-92; U-251; OVCAR-4; KM12; SF-295; COLO 205; HL-60; CCRF-CEM; DU-145; 786-0; PC-3; SK-MEL-5; OVCAR-5; Malme-3M; SNB-75; MDA-MB-435; UO-31.
What all share (experiment): NCI-60 cell line screen, 48 h

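Test compounds were applied to cells in 96-well plates for 48 hours at 5 doses. GI50 marks 50% less growth.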 Active and inactive are the calls of the source. No stated cut-off is given here; in the data, active = GI50 up to about 1.1 µM and inactive = higher.

On to `CC(=O)OCCOc1cc2c([nH]c3ccccc32)c(C)c2cccc1-2`, for which the GI50 with SN12C is 3.01 µM (inactive); with A549 it was 3.85 µM (inactive); with HOP-92 it was 1.86 µM (inactive); with U-251 it was 1.69 µM (inactive); in the experiment on OVCAR-4 it was 1.77 µM (inactive); in the experiment on KM12 it was 2.34 µM (inactive). The GI50 in the experiment with SF-295 is 3.28 µM (inactive); in the experiment on COLO 205 it was 1.7 µM (inactive); in the experiment with HL-60, 3.05 µM (inactive); in the experiment on CCRF-CEM, 3.38 µM (inactive); with DU-145, 4.16 µM (inactive); in the experiment on 786-0 it was 2.84 µM (inactive). For the same molecule, the GI50 in the experiment with PC-3 is 1.76 µM (inactive); in the experiment on SK-MEL-5, 2.77 µM (inactive); in the experiment on OVCAR-5 it was 2.97 µM (inactive); in the experiment on Malme-3M it was 2.11 µM (inactive); in the experiment on SNB-75, 1.71 µM (inactive); in the experiment with MDA-MB-435, 2.29 µM (inactive). The GI50 in the experiment on UO-31 was 1.75 µM (inactive).
As for `CN/C(=N\N=C1/C(=O)Nc2ccccc21)SCC(=O)c1ccc(Br)cc1`, the GI50 in the experiment on SN12C is 12.5 µM (inactive); with A549, 5.01 µM (inactive); with HOP-92, 20.7 µM (inactive); in the experiment with U-251, 5.21 µM (inactive); with OVCAR-4, 21.5 µM (inactive); in the experiment on KM12, 7.53 µM (inactive). Besides, the GI50 in the experiment with SF-295 is 18.7 µM (inactive); in the experiment on COLO 205, 41.8 µM (inactive); in the experiment on HL-60, 3.48 µM (inactive); with CCRF-CEM it was 5.46 µM (inactive); in the experiment on DU-145, 6.82 µM (inactive); in the experiment on 786-0, 5.61 µM (inactive). In addition, the GI50 was 10.3 µM (inactive) in the experiment on PC-3; 22.9 µM (inactive) in the experiment with SK-MEL-5; 32 µM (inactive) with OVCAR-5; 13.5 µM (inactive) with Malme-3M; 8.47 µM (inactive) with SNB-75; 9.57 µM (inactive) in the experiment with MDA-MB-435. For the same molecule, the GI50 in the experiment on UO-31 is 1.04 µM (active).
Take `Cc1cc(-c2ccc(C(=O)C(c3ccccc3)(c3ccccc3)c3ccccc3)[nH]2)on1`: the GI50 in the experiment on SN12C is 19.1 µM (inactive); in the experiment on A549 it was 12 µM (inactive); in the experiment with HOP-92, 16.1 µM (inactive); in the experiment with U-251, 12.9 µM (inactive); in the experiment on OVCAR-4, 32.3 µM (inactive); in the experiment on KM12, 15.6 µM (inactive). Besides, the GI50 was 14.2 µM (inactive) in the experiment with SF-295; 15.9 µM (inactive) in the experiment on COLO 205; 3.56 µM (inactive) with HL-60; 15.5 µM (inactive) in the experiment with CCRF-CEM; 14.2 µM (inactive) in the experiment on DU-145; 18.4 µM (inactive) in the experiment with 786-0. Moreover, the GI50 is 15.2 µM (inactive) in the experiment with PC-3; 12.7 µM (inactive) with SK-MEL-5; 23.8 µM (inactive) with OVCAR-5; 31.4 µM (inactive) in the experiment with Malme-3M; 20.4 µM (inactive) with SNB-75; 20.1 µM (inactive) in the experiment with MDA-MB-435. Further, the GI50 in the experiment on UO-31 was 15.2 µM (inactive).
For `CC(C)Cc1cc2c(cc1O)CCC1C2CC[C@@]2(C)C1CC[C@@H]2O` (stereo not given in full), the GI50 was 7.74 µM (inactive) in the experiment on SN12C; 6.84 µM (inactive) with A549; 10.2 µM (inactive) in the experiment on HOP-92; 10.7 µM (inactive) in the experiment with U-251; 8.97 µM (inactive) with OVCAR-4; 6.55 µM (inactive) with KM12. Moreover, the GI50 in the experiment on SF-295 is 4.09 µM (inactive); in the experiment with COLO 205 it was 15.2 µM (inactive); in the experiment with HL-60, 1.94 µM (inactive); with CCRF-CEM it was 7.91 µM (inactive); in the experiment with DU-145 it was 9.2 µM (inactive); in the experiment with 786-0, 8.13 µM (inactive). Also, the GI50 was 6.35 µM (inactive) with PC-3; 7.45 µM (inactive) in the experiment on SK-MEL-5; 16.1 µM (inactive) in the experiment on OVCAR-5; 17.7 µM (inactive) with Malme-3M; 5.68 µM (inactive) in the experiment on SNB-75; 11.6 µM (inactive) with MDA-MB-435. The GI50 in the experiment on UO-31 is 4.05 µM (inactive).
As to `CC1=C2C(=O)c3ccccc3C(=O)[C@H]2[C@H]2CCO[C@H]2O1`, the GI50 in the experiment with SN12C is 20.9 µM (inactive); in the experiment on A549, 32.2 µM (inactive); in the experiment on HOP-92, 20 µM (inactive); in the experiment with U-251 it was 24.2 µM (inactive); in the experiment on OVCAR-4 it was 19.5 µM (inactive); with KM12, 24.5 µM (inactive). The GI50 is 23 µM (inactive) in the experiment with SF-295; 42.2 µM (inactive) with COLO 205; 27.7 µM (inactive) in the experiment with HL-60; 25.4 µM (inactive) in the experiment with CCRF-CEM; 22.3 µM (inactive) in the experiment on DU-145; 18.5 µM (inactive) with 786-0. Also, the GI50 in the experiment with PC-3 was 30.3 µM (inactive); with SK-MEL-5, 15.6 µM (inactive); in the experiment with OVCAR-5 it was 23.7 µM (inactive); with Malme-3M, 19.1 µM (inactive); in the experiment with SNB-75 it was 19.8 µM (inactive); in the experiment on MDA-MB-435, 20.7 µM (inactive). Moreover, the GI50 in the experiment with UO-31 was 18.1 µM (inactive).
On to `CC[C@@H]1CC[C@@H]2[C@H](CC[C@]3(C)[C@@H](O[N+](=O)[O-])CC[C@@H]23)[C@H]1C(C)=O`, for which the GI50 in the experiment on SN12C is 43.3 µM (inactive); with A549 it was 28.4 µM (inactive); with HOP-92 it was 21.6 µM (inactive); with U-251 it was 32.4 µM (inactive); in the experiment on OVCAR-4 it was 39 µM (inactive); in the experiment on KM12, 17.3 µM (inactive). The GI50 was 42.6 µM (inactive) in the experiment on SF-295; 7.85 µM (inactive) in the experiment with COLO 205; 13.5 µM (inactive) in the experiment with HL-60; 32.4 µM (inactive) in the experiment with CCRF-CEM; 45.7 µM (inactive) with DU-145; 50.7 µM (inactive) in the experiment with 786-0. The GI50 was 28.9 µM (inactive) in the experiment on PC-3; 19.7 µM (inactive) with SK-MEL-5; 64.3 µM (inactive) in the experiment with OVCAR-5; 25.4 µM (inactive) with Malme-3M; 27.6 µM (inactive) in the experiment on SNB-75; 32.8 µM (inactive) in the experiment on MDA-MB-435. The GI50 with UO-31 is 24.6 µM (inactive).
In the case of `O=C(CC(=O)N1N=C(N2CCCCC2)CC1c1ccccc1)Nc1ccccc1` (stereo not given), the GI50 in the experiment with SN12C was > 100 µM (inactive); with A549, > 100 µM (inactive); in the experiment on HOP-92, 91 µM (inactive); with U-251 it was > 100 µM (inactive); with OVCAR-4, > 100 µM (inactive); in the experiment with KM12, > 100 µM (inactive). Moreover, the GI50 in the experiment on SF-295, with COLO 205, with HL-60, with CCRF-CEM, in the experiment on DU-145 and in the experiment on 786-0 was > 100 µM (inactive) each time. Also, the GI50 in the experiment with PC-3, in the experiment with SK-MEL-5, with OVCAR-5, with Malme-3M, in the experiment with SNB-75 and in the experiment on MDA-MB-435 was > 100 µM (inactive) throughout. Moreover, the GI50 in the experiment on UO-31 is > 100 µM (inactive).
Take `CCOC(=O)C(Cc1ccc(O)cc1)Nc1nc(=O)c2c(=O)oc(Cl)cc2o1` (stereo not given): the GI50 was 6.28 µM (inactive) in the experiment with SN12C; 16.1 µM (inactive) with A549; 7.31 µM (inactive) with HOP-92; 7.19 µM (inactive) in the experiment on U-251; 12.6 µM (inactive) in the experiment on OVCAR-4; 10.2 µM (inactive) with KM12. Besides, the GI50 in the experiment with SF-295 was 16 µM (inactive); with COLO 205 it was 8.49 µM (inactive); in the experiment with HL-60, 2.84 µM (inactive); with CCRF-CEM, 2.7 µM (inactive); in the experiment with DU-145, 17.3 µM (inactive); in the experiment on 786-0 it was 9.12 µM (inactive). Besides, the GI50 in the experiment with PC-3 is 8.93 µM (inactive); with SK-MEL-5 it was 8.15 µM (inactive); in the experiment with OVCAR-5, 17.8 µM (inactive); in the experiment on Malme-3M it was 3.17 µM (inactive); in the experiment on SNB-75, 4.91 µM (inactive); with MDA-MB-435, 4.52 µM (inactive). In addition, the GI50 in the experiment with UO-31 was 10.9 µM (inactive).
On to `COC(=O)c1cncc2c1CC1C3(C(=O)OC)C=NC(C4C(CO)=CCC43)C21C` (stereo not given), for which the GI50 in the experiment on SN12C, in the experiment with A549, with HOP-92, in the experiment with U-251, in the experiment on OVCAR-4 and with KM12 was > 100 µM (inactive) throughout. Also, the GI50 in the experiment with SF-295, with COLO 205, in the experiment with HL-60, in the experiment with CCRF-CEM, in the experiment on DU-145 and with 786-0 was > 100 µM (inactive) in each case. The GI50 was > 100 µM (inactive) in the experiment with PC-3; > 100 µM (inactive) with SK-MEL-5; > 100 µM (inactive) with OVCAR-5; > 100 µM (inactive) in the experiment on Malme-3M; 83.4 µM (inactive) in the experiment on SNB-75; > 100 µM (inactive) with MDA-MB-435. In addition, the GI50 in the experiment with UO-31 is > 100 µM (inactive).
Regarding `COc1cc2oc(=O)cc(C)c2cc1O`, the GI50 was > 100 µM (inactive) with SN12C; > 100 µM (inactive) in the experiment on A549; 46.3 µM (inactive) with HOP-92; > 100 µM (inactive) in the experiment with U-251; > 100 µM (inactive) in the experiment with OVCAR-4; > 100 µM (inactive) with KM12. In addition, the GI50 in the experiment on SF-295, with COLO 205, in the experiment with HL-60, with CCRF-CEM, in the experiment with DU-145 and in the experiment with 786-0 was > 100 µM (inactive) each time. The GI50 with PC-3, with SK-MEL-5, in the experiment on OVCAR-5, in the experiment on Malme-3M, with SNB-75 and in the experiment with MDA-MB-435 was > 100 µM (inactive) throughout. Also, in the experiment on UO-31, the GI50 was 54.5 µM (inactive).
